Data taken from article PMC12993615 (The journal of pain, 2024).

Experiments:
Type in all cases: in vivo, male Sprague Dawley rats
[1] = test system: oxaliplatin-induced mechanical allodynia; assay: 7-day treatment of established OIPN, paw withdrawal threshold; conditions: pregabalin 30 mg/kg PO on Days 7 and 14, P < .01
Experimental: (§1) Male Sprague Dawley rats (150–210 g) were housed in groups of 4 in intra-ventilated Perspex home cages. Humidity, temperature (21 ± 1 °C), and lighting (light-dark cycle of 12:12 hours) were controlled and maintained in the home cages, with food and water available ad libitum. Rats acclimatised to the home cages for at least 1 week. All experiments were carried out according to the Animals (Scientific Procedures) Act, 1986 (U.K. Government Home Office). The study was performed under the Home Office project licence number PP0847012. OIPN was established with a single dose of OXA (10 mg/kg, IP).
Body weight was monitored throughout the study, and terminal plasma and whole brain samples were taken for bioanalysis.
(§2) Tactile allodynia (primary outcome measure) was assessed using paw withdrawal threshold (PWT), a measure of pain sensitivity. PWT was evaluated using calibrated von-Frey monofilaments (Touch-Test Sensory Evaluator; Scientific Marketing Associates) applied to the plantar surface of the left hind paw. PWT was determined by increasing and decreasing stimulus intensity and estimated using Dixon’s up-down method.[38],[39]
(§3) To acquire baseline readings, pain behaviour was assessed on 3 consecutive days (Days −3, −2, −1). […] NPB expressed as a percentage change from HBL was calculated as follows (HBL-NPB)/HBL*100. […]

[2] = test system: oxaliplatin-induced mechanical allodynia; assay: Prevention of OIPN, paw withdrawal threshold; conditions: pregabalin 30 mg/kg PO QD
Experimental: as §1
(§4) Pain measurements were made on Days 5/6 (when neuropathy has normally developed) and at the end of the study. […] Terminal plasma samples were taken for bioanalysis and proteomics (Somalogic). Brain regions involved in pain processing, that is, prefrontal cortex (PFC), periaqueductal grey (PAG), whole spinal cords (SC), and L4-L6 dorsal root ganglia, were collected for lipidomic and genomic (Genewiz, China) analyses.
as §2
To acquire baseline readings, pain behaviour was assessed on 3 consecutive days (Days −3, −2, −1). The mean of Day −2 and Day −1 was considered the healthy baseline (HBL) prior to OIPN induction. On Days 5 and 6 after OXA injection, thresholds were reassessed. The mean of Days 5 and 6 was considered the neuropathic baseline (NPB). Animals were then ranked and randomised (based on a Latin square design) to treatment groups according to the percentage change of the mean thresholds observed in the NPB compared to the HBL. NPB expressed as a percentage change from HBL was calculated as follows (HBL-NPB)/HBL*100. All behavioural assessment was done by an experimenter blinded to the identity of the treatment. Separate people were responsible for dosing and assessment/data analysis.

[3] = test system: oxaliplatin-induced thermal hyperalgesia; assay: Prevention of OIPN, cold plate latency; conditions: pregabalin 30 mg/kg PO QD, P < .001
Experimental: as §1
Pain measurements were made on Days 5/6 (when neuropathy has normally developed) and at the end of the study. […] Terminal plasma samples were taken for bioanalysis and proteomics (Somalogic). […]
Thermal hyperalgesia was assessed using a cold plate (Bioseb, France) set at a fixed temperature of 15 °C. Latency to the first escape behaviour from the plate was measured indicating discomfort to the thermal stimulation. […]
as §3

[4] = Prevention of OIPN, body weight; conditions: pregabalin 30 mg/kg PO QD
Excerpt: as §4

CC(C)C[C@H](CN)CC(=O)O [pregabalin, Pregabalin, reference compound]
PWT scores versus vehicle [1]: significantly higher PWT scores than vehicle
PWT on Day 14 compared to HBL [2]: neither the ART26.12 nor the pregabalin groups showed significant allodynia
PWT on Day 5/6 compared to HBL ([2]; P < .05): significantly lower PWTs
cold plate latencies on Day 14 versus vehicle [3]: significantly higher cold plate latencies than the vehicle group
body weight in first 4 days post-administration of OXA [4]: weight loss
